Experimental data: paper PMC4667793 (Journal of medicinal chemistry, 2015)
“And” between values parts separate entries of the source, which are not always exact repeats. Equal entries are not always repeated. Structures can show the parent of a compound that is named as a salt.

Key:
[1] = molecular target: T1, MtBPL (Mycobacterium tuberculosis, UniProt I6YFP0); settings: for -TΔS: calculated from ΔG (displacement) and ΔH (direct titration); for ΔH: direct titration ITC, 25 °C
[2] = test system: MDR-TB and XDR-TB strains; settings: ten MDR-TB and XDR-TB strains; cited from earlier work
[3] = molecular target: T1, MtBPL; settings: for ΔG: from K of displacement ITC, 298 K
[4] = molecular target: T1, MtBPL; experiment: biochemical; settings: read-out: ΔTm
[5] = molecular target: T1, MtBPL; experiment: biochemical
[6] = test system: M. tuberculosis H37Rv; experiment: microbe, parasite or virus in culture; settings: Mycobacterium tuberculosis
[7] = cyclonucleoside formation or decomposition at room temperature

T1 sequence (I6YFP0 whole entry, looked up): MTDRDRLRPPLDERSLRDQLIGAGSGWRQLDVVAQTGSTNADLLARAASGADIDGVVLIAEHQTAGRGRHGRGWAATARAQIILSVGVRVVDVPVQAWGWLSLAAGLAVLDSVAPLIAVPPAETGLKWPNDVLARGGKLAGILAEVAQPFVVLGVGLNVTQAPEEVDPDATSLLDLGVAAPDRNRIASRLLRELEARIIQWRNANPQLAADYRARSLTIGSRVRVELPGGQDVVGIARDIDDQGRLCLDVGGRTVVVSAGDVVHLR

| Compound | -TΔS [1] | ΔH [1] | MIC [2] | ΔG [3] | ΔTm at 43 µM [4] | Kd [5] | fold more potent than 14 (KD) [3] | MIC90 [6] | chemical stability [7] |
| --- | --- | --- | --- | --- | --- | --- | --- | --- | --- |
| Nc1ncnc2c1ncn2[C@@H]1O[C@H](CNS(=O)(=O)NC(=O)CCCC[C@@H]2SC[C@@H]3NC(=O)N[C@@H]32)[C@@H](O)[C@H]1O [Compound 14, 5′-[N-(D-biotinoyl)sulfamoyl]amino-5′-deoxyadenosine triethylammonium salt] | 6.6 ± 0.1 kcal/mol | -18.9 ± 0.1 kcal/mol | 0.16 to 0.625 µM | – | – | – | – | – | – |
| CCN(CC)CC.Nc1ncnc2c1ncn2[C@@H]1C[C@H](CNS(=O)(=O)NC(=O)CCCC[C@@H]2SC[C@@H]3NC(=O)N[C@@H]32)[C@@H](O)[C@H]1O [Compound 28] | 7.8 ± 0.2 kcal/mol | -20.2 ± 0.2 kcal/mol | – | -12.4 kcal/mol and -12.4 ± 0.0 kcal/mol | – | – | – | – | – |
| CCN(CC)CC.Nc1ncnc2c1ncn2[C@H]1C=C[C@@H](CNS(=O)(=O)NC(=O)CCCC[C@@H]2SC[C@@H]3NC(=O)N[C@@H]32)C1 [Compound 34] | 10.3 ± 0.2 kcal/mol | -22.1 ± 0.2 kcal/mol | – | -11.8 ± 0.2 kcal/mol | – | – | – | – | – |
| CCN(CC)CC.Nc1ncnc2c1ncn2[C@H]1CC[C@@H](CNS(=O)(=O)NC(=O)CCCC[C@@H]2SC[C@@H]3NC(=O)N[C@@H]32)C1 [Compound 36] | 10.7 ± 0.4 kcal/mol | -23.5 ± 0.4 kcal/mol | – | -12.6 ± 0.2 kcal/mol | – | – | – | – | – |
| CCN(CC)CC.[N-]=[N+]=N[C@@H]1[C@H](O)[C@@H](CNS(=O)(=O)NC(=O)CCCC[C@@H]2SC[C@@H]3NC(=O)N[C@@H]32)O[C@H]1n1cnc2c(N)ncnc21 [Compound 46] | 10.9 ± 0.3 kcal/mol | -23.2 ± 0.2 kcal/mol | – | -12.3 ± 0.6 kcal/mol | – | – | – | – | – |
| CCN(CC)CC.Nc1ncnc2c1ncn2[C@@H]1O[C@H](CNS(=O)(=O)NC(=O)CCCC[C@@H]2SC[C@@H]3NC(=O)N[C@@H]32)[C@@H](O)[C@H]1N [Compound 47] | 6.5 ± 0.2 kcal/mol | -19.1 ± 0.1 kcal/mol | – | -12.6 ± 1.0 kcal/mol | – | – | – | – | – |
| [N-]=[N+]=N[C@H]1[C@H](O)[C@@H](COS(=O)(=O)NC(=O)CCCC[C@@H]2SC[C@@H]3NC(=O)N[C@@H]32)O[C@H]1n1cnc2c(N)ncnc21 [Compound 57, 9-{2′-Azido-5′-O-[N-(D-biotinoyl)sulfamoyl]-2′-deoxy-β-D-arabinofuranosyl}adenine triethylammonium salt] | 14.9 ± 0.1 kcal/mol | – | – | -14.4 ± 0.2 kcal/mol | 17 ± 1 °C | 0.027 nM | 32 fold | > 100 µM | resisted any cyclonucleoside formation |
| CCN(CC)CC.Nc1ncnc2c1ncn2[C@@H]1O[C@H](CNS(=O)(=O)NC(=O)CCCC[C@@H]2SC[C@@H]3NC(=O)N[C@@H]32)[C@@H](O)[C@H]1F [Compound 63, 5′-[N-(D-Biotinoyl)sulfamoyl]amino-2′,5′-dideoxy-2′-fluoroadenosine triethylammonium salt] | 11.8 ± 0.5 kcal/mol | -24.3 kcal/mol and -24.3 ± 0.5 kcal/mol | – | -12.6 ± 0.3 kcal/mol | – | – | – | – | – |
| CCN(CC)CC.Nc1ncnc2c1ncn2[C@@H]1O[C@H](COS(=O)(=O)NC(=O)CCCC[C@@H]2SC[C@@H]3NC(=O)N[C@@H]32)[C@@H](O)[C@@H]1F [Compound 69, 9-{5′-O-[N-(D-Biotinoyl)sulfamoyl]-2′-deoxy-2′-fluoro-β-D-arabinofuranosyl}adenine triethylammonium salt] | 14.7 ± 0.5 kcal/mol | -28.4 kcal/mol and -28.4 ± 0.6 kcal/mol | – | -13.4 ± 0.0 kcal/mol | – | – | – | – | resisted any cyclonucleoside formation |
| CCN(CC)CC.C[C@@]1(O)[C@H](O)[C@@H](COS(=O)(=O)NC(=O)CCCC[C@@H]2SC[C@@H]3NC(=O)N[C@@H]32)O[C@H]1n1cnc2c(N)ncnc21 [Compound 73, 5′-O-[N-(D-Biotinoyl)sulfamoyl]-β-2'-methyladenosine triethylammonium salt] | 8.1 ± 0.5 kcal/mol | -20.3 ± 0.4 kcal/mol | – | -12.4 ± 0.4 kcal/mol | – | – | – | – | resisted any cyclonucleoside formation |
| CCN(CC)CC.Nc1ncnc2c1ncn2[C@H]1CNC[C@@H](COS(=O)(=O)NC(=O)CCCC[C@@H]2SC[C@@H]3NC(=O)N[C@@H]32)O1 [Compound 82, (2′R,6′S)-9-[6′-({[N-(D-Biotinoyl)sulfamoyl]oxy}methyl)morpholin-2′-yl]adenine triethylammonium salt] | 5.9 ± 0.1 kcal/mol | -18.8 ± 0.0 kcal/mol | – | -12.9 ± 0.9 kcal/mol | – | – | – | – | – |
| CCN(CC)CC.Nc1ncnc2c1ncn2[C@@H]1O[C@H](CNS(=O)(=O)NC(=O)CCCC[C@@H]2SC[C@@H]3NC(=O)N[C@@H]32)C[C@H]1O [Compound 87, 5′-[N-(D-Biotinoyl)sulfamoyl]amino-3′,5′-dideoxyadenosine triethylammonium salt] | 8.8 ± 0.6 kcal/mol | -21.4 ± 0.5 kcal/mol | – | -12.6 ± 0.1 kcal/mol | – | – | – | – | – |
